Assay results published in the supplement of paper PMC10307832.

How the values were obtained:
Test in all cases: relative viability (nuclei count vs DMSO), 5 days (fraction); higher = more cells survive
[1] = test system: 201T
Outline: (§1)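 For relative viability, nuclei counts in treated wells were divided by those in vehicle wells. Lung cancer cell lines had been pin-tool dosed in 1536-well plates the day after seeding and cultured for 5 days, then fixed and stained in one step (final 0.05% Triton X-100, 1% formaldehyde, 1 ug/ml Hoechst) and imaged at 4×. Doses were one drug alone or a fixed anchor-drug dose plus five library-drug doses (not always all listed) in √10 steps, and values are duplicate-plate medians.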

[2] = test system: A-427
Outline: as §1

[3] = test system: COR-L23
Outline: as §1

[4] = test system: H3255
Outline: as §1

[5] = test system: HCC-44
Outline: as §1

[6] = test system: LC-2-ad
Outline: as §1

[7] = test system: LCLC-103H
Outline: as §1

[8] = test system: LCLC-97TM1
Outline: as §1

[9] = test system: LK-2
Outline: as §1

[10] = test system: LU99A
Outline: as §1

[11] = test system: NCI-H1563
Outline: as §1

SMILES: CC(=O)O[C@@]12CO[C@@H]1C[C@H](O)[C@@]1(C)C(=O)[C@H](O)C3=C(C)[C@@H](OC(=O)[C@H](O)[C@@H](NC(=O)OC(C)(C)C)c4ccccc4)C[C@@](O)([C@@H](OC(=O)c4ccccc4)[C@H]21)C3(C)C [Docetaxel] + Nc1nc2[nH]cc(CCc3ccc(C(=O)N[C@@H](CCC(=O)O)C(=O)O)cc3)c2c(=O)[nH]1 [Pemetrexed] (partner 0.2 µM)
- relative viability ([1]; first compound 0.0002 µM): 0.36
- relative viability ([1]; first compound 0.000632 µM): 0.32
- relative viability ([1]; first compound 0.002 µM): 0.312
- relative viability ([1]; first compound 0.006325 µM): 0.424
- relative viability ([1]; first compound 0.02 µM): 0.255
- relative viability ([2]; first compound 0.0002 µM): 0.886
- relative viability ([2]; first compound 0.000632 µM): 0.946
- relative viability ([2]; first compound 0.002 µM): 0.822
- relative viability ([2]; first compound 0.006325 µM): 0.323
- relative viability ([3]; first compound 0.0002 µM): 0.189
- relative viability ([3]; first compound 0.000632 µM): 0.184
- relative viability ([3]; first compound 0.002 µM): 0.186
- relative viability ([3]; first compound 0.006325 µM): 0.167
- relative viability ([4]; first compound 0.0002 µM): 0.494
- relative viability ([4]; first compound 0.000632 µM): 0.595
- relative viability ([4]; first compound 0.002 µM): 0.437
- relative viability ([4]; first compound 0.006325 µM): 0.368
- relative viability ([4]; first compound 0.02 µM): 0.359
- relative viability ([5]; first compound 0.0002 µM): 0.627
- relative viability ([5]; first compound 0.000632 µM): 0.644
- relative viability ([5]; first compound 0.002 µM): 0.628
- relative viability ([5]; first compound 0.006325 µM): 0.602
- relative viability ([5]; first compound 0.02 µM): 0.491
- relative viability ([6]; first compound 0.0002 µM): 0.259
- relative viability ([6]; first compound 0.000632 µM): 0.221
- relative viability ([6]; first compound 0.006325 µM): 0.173
- relative viability ([6]; first compound 0.02 µM): 0.181
- relative viability ([7]; first compound 0.0002 µM): 0.495
- relative viability ([7]; first compound 0.000632 µM): 0.54
- relative viability ([7]; first compound 0.002 µM): 0.515
- relative viability ([7]; first compound 0.006325 µM): 0.6
- relative viability ([7]; first compound 0.02 µM): 0.492
- relative viability ([8]; first compound 0.0002 µM): 0.167
- relative viability ([8]; first compound 0.000632 µM): 0.161
- relative viability ([8]; first compound 0.002 µM): 0.129
- relative viability ([8]; first compound 0.006325 µM): 0.109
- relative viability ([8]; first compound 0.02 µM): 0.0702
- relative viability ([9]; first compound 0.0002 µM): 0.172
- relative viability ([9]; first compound 0.000632 µM): 0.217
- relative viability ([9]; first compound 0.002 µM): 0.163
- relative viability ([9]; first compound 0.006325 µM): 0.119
- relative viability ([9]; first compound 0.02 µM): 0.131
- relative viability ([10]; first compound 0.0002 µM): 0.208
- relative viability ([10]; first compound 0.000632 µM): 0.201
- relative viability ([10]; first compound 0.002 µM): 0.217
- relative viability ([10]; first compound 0.006325 µM): 0.207
- relative viability ([10]; first compound 0.02 µM): 0.19
- relative viability ([11]; first compound 0.0002 µM): 0.701
- relative viability ([11]; first compound 0.000632 µM): 0.843
- relative viability ([11]; first compound 0.002 µM): 0.69
- relative viability ([11]; first compound 0.006325 µM): 0.608
